The numbers were not newly measured in patent publication US10258598B2, “Compounds for use in the prevention or treatment of cancer” ([…], priority 2014, dated 2019), which cites them from elsewhere.

Where a name gives a salt, the structure may show the parent alone.

The data set relates to norepinephrine and dopamine stores in catecholaminergic neurons in the brain stem. The following applies: 1 mg/kg s.c.; cited from earlier work.

Take `COc1cc2c(cc1OC)C1CC(=O)C(CC(C)C)CN1CC2` (stereo not shown) [Tetrabenazine, Tetrabenazine HCl]: the “depletion of norepinephrine and dopamine from their stores” value was “at least 90%”.
